Entries after “also recorded” stand apart in the source; their conditions may differ.
What was measured:
IMQ-induced psoriasis = assay: Imiquimod (IMQ)-induced dermal inflammation/psoriasis model (Study 2); format: in vivo, BALB/c mice; conditions: Compound 2 2.5 mg/kg
Experimental: Forty (40) male BALB/c mice (Biological E Limited, Hyderabad (CPCSEA registration number: 36/99/CPCSEA)) were divided into four (4) groups consisting of ten (10) mice each. Animals were randomized based on their body weight. The groups were designated as Group-I (Nave), Group-II (IMQ; vehicle (PEG 400 and HPBCD)), Group-III (IMQ; Compound 2 (2.5 mg/kg)) and […] (IMQ; cyclophosphamide (10 mg/kg)).
A small area on the dorsum of each mouse was shaved, ensuring that these areas were of equal size/area. Psoriasis was induced in Groups II to IV by topical application of 50 mg of IMQ cream daily from Day 1 to Day 6 on the dorsum of the animals. On Day 1 and Day 2 of the study, four hours after topical application of IMQ, Compound 2 or positive control (cyclophosphamide) or vehicle were administered to animals in pertinent groups. Of note, animals in Group II and Group III were subjected to subcutaneous injections, whereas animals in Group IV received oral administration. The Compound 2, vehicle and cyclophosphamide treatment was terminated on Day 2. These groups of animals were maintained on daily IMQ treatments until Day 6. On Day 7, the psoriasis-induced animals were re-randomized into 3 groups consisting of 10 animals each based on Cumulative Disease Activity Index (CDAI). From Day 7 to Day 9, animals received vehicle or positive control or Compound 2. Of note, on these days animals were not treated with IMQ. From Day 10 to Day 14, the animals were treated alternatively with IMQ (Days 10, 12 and 14), or vehicle, positive control or Compound 2 (Days 11, 13).
All animals were observed daily for a period of […] for gross observations, body weight and feed and water intake. On Days 1 and 2, scorings of erythema, scaling, folding and thickening of skin were recorded 2 hours after administration of vehicle/positive control/test compounds, and on Days 3 to 14 scorings were recorded 4 hours after IMQ application, or administration of positive control, vehicle or Compound 2.
Vehicle was prepared by dissolving 40 mg of HPBCD in 70.0 mL of distilled water. Compound 2 was prepared by dissolving 3.59 mg in 0.5% PVP and 0.5% Pluronic. Cyclophosphamide was prepared by dissolving 500 mg of CMC in 100 mL distilled water.
The experimental results shown in Table 10 are expressed as mean±SEM. Data was assessed using one-way ANOVA, and post hoc analysis was performed using Dunnett's test.

diet-induced obesity = assay: Diet-induced obesity (DIO) model; format: in vivo, Sprague-Dawley rats
Experimental: Male Sprague-Dawley rats of age 2 months were placed on a high fat diet (Research Diets Inc., product code D12492, 60% kcal % fat) for 3 months. A group of age-matched rats were fed normal lab chow (LabDiet 5001, ˜13% kcal % fat), these animals served as controls for DIO group.
At age 4 months, and 2 months into placement of high fat diet, all rats were allocated into 3 groups of N=7 based on equivalent body weights and food intakes. Body weights and food and water intakes were measured at approximately the same time each day. On treatment days, dosing was at approximately 2 hours before lights off.
The DIO control group was treated with vehicle (oral, 10 mL/kg dose volume; 0.5% Pluronic F68 and 0.5% PVP K29/32 in water) on each weekday. The Compound 21.5 mg/kg group was orally treated on each weekday throughout the treatment phase (dose 10 mL/kg dose volume; 0.5% Pluronic F68 and 0.5% PVP K29/32 in water). The Compound 2 3 mg/kg group (10 mL/kg dose volume; 0.5% Pluronic F68 and 0.5% PVP K29/32 in water) was orally treated initially once daily on each weekday for week 1, then twice weekly (Monday, Wednesday) for week 2. During treatment weeks 3 and 4, Compound 2 3 mg/kg treatment continued twice weekly, except dosing was on Monday and Thursday.
Prior to the treatment phase, 3 days baseline data were collected. The treatment phase was for 4 weeks. A washout phase of 10 days was also included.
Compound 2 was supplied in powder form. […] Active percentage was adjusted using BEW of 1.437 and prepared by dissolving into 0.5% w/v Pluronic F-68 and 0.5% w/v PVP K-29-32 vehicle solution. The vehicle solution was prepared on a weekly basis while Compound 2 was prepared fresh every 2 days and stored at +4° C. Animals were dosed at a volume of 10 mL/kg. Individual doses were calculated based on the most recent body weights to provide the proper mg/kg/day dosage.

[1] = system: collagen-induced arthritis; assay: Collagen-Induced Arthritis (CIA) Study No. 2; format: in vivo, Lewis rats
Experimental: To further investigate the effect of the compounds described herein on inflammation biomarkers, a second CIA model was initiated. In this model, the groups were designated as group A (naïve), group B (model; vehicle-treated), group C (Compound 2 at 5 mg/kg QoD). The rats in groups B and C were immunized intradermally with bovine Type II collagen in IFA on day 0, and a booster injection was given on day 7. Compound 2 was orally administered to rats with CIA after the onset of arthritis (Day 11). CIA development was evaluated via macroscopic scoring and measurements of paw swelling. This was assessed every day for the first 5 days after sensitization (day 7), and then twice per week (Monday and Thursday) until Day 28 using the clinical scoring system described in Table 7 above. In addition, ELISAs for CD45, CRP, CCL2/MCP-1, RANKL, TNF-α, IL1-β, IL-6, IL-8, IL-15, IL-17, and measurements for cathepsin K and elastase were performed 4 days (Day 15 of the study) and 10 days (Day 21 of the study—peak for the disease) after compound treatment and at the very end of the study (Day 28) on all group animals. Additionally, on the last day of the study (Day 28), a few representative animals from each group were subjected to three-dimensional micro-tomodensitometry of calcaneus, and bone erosion was quantified.

[2] = system: cytokines GRO/KC, IFNγ, IL-1B, IL-6, IL-10, IL-12p70 and TNFa; assay: Plasma cytokine expression after BCCI injury (Luminex); format: in vivo, rats; conditions: 6 mg/kg
Experimental: The expression level of several cytokines in plasma harvested from rats in each treatment group was measured. The samples were received frozen and stored at −80° C. On the day of the experiment, the samples were thawed, diluted four-fold, and analyzed for cytokine expression on a Luminex platform. The samples were analyzed for the cytokines GRO/KC, IFNγ, IL-1B, IL-6, IL-10, IL-12p70 and TNFa, using a multipliex kit manufactured by Millipore. […] The biggest change was in IL-10.

| SMILES | body weight, food consumption and water intake (IMQ-induced psoriasis) | rate of reduction of disease activity index compared to vehicle (IMQ-induced psoriasis; 2.5 mg/kg) | daily food intake and body weight compared to DIO control group (diet-induced obesity; 1.5-3 mg/kg oral, 28 day treatment period) | body weight gain (percentage of body weight change from study day 3) compared to DIO controls (diet-induced obesity; 1.5 and 3 mg/kg, treatment days 7 (study day 10) and 14 (study day 17)) | body weight over the washout phase (diet-induced obesity; washout phase, both Compound 2 groups) | joint swelling and clinical scores compared to vehicle-treated rats ([1]; 5 mg/kg QoD orally from Day 11) | bone erosion in the rear paws (micro CT, BMD) ([1]; 5 mg/kg QoD, Day 28) | plasma IL-10 compared to vehicle-treated control group [2] |
| --- | --- | --- | --- | --- | --- | --- | --- | --- |
| O=C(/C=C\n1cnc(-c2cc(C(F)(F)F)cc(C(F)(F)F)c2)n1)NNC(=O)CN1CCOCC1 [Compound 2, (Z)-3-(3-(3,5-bis(trifluoromethyl)phenyl)-1H-1,2,4-triazol-1-yl)-N′-(2-morpholinoacetyl)acrylohydrazide] | without greatly impacting the consumption of food or water | significantly greater than that observed in animals treated with vehicle; also recorded: diminished IMQ-induced disease manifestation | dose-related decrease in daily food intake and body weight; also recorded: decreases daily food intake in a dose dependent manner | significant reduction in weight gain | remained lower than DIO controls | significantly reduced joint swelling | significantly reduced bone erosion in the rear paws; also recorded: comparable to that of naïve animals | – |
| CC(C)(C)C(=O)NNC(=O)/C=C\n1cnc(-c2cc(C(F)(F)F)cc(C(F)(F)F)c2)n1 [Compound 1, (Z)-3-(3-(3,5-bis(trifluoromethyl)phenyl)-1H-1,2,4-triazol-1-yl)-N′-pivaloylacrylohydrazide] | – | – | – | – | – | – | – | reduced IL-10 |
